Laboratory results: patent US6410527B1, “Method of treating obsessive compulsive disorders, somatoform disorders, dissociative disorders, eating disorders, impulse control disorders, and autism” (Schering Corporation, priority 1998, dated 2002)
Where a name gives a salt, the structure may show the parent alone.

Columns and labels:
[1] = tested on: patient diagnosed with obsessive-compulsive disorder; assay: Administration of SCH 39166 capsules to a patient with obsessive-compulsive disorder; format: in vivo, human; details: capsules of Example 1 containing 5.0 mg SCH 39166, once a day, six months
[2] = tested on: patient diagnosed as having autism; assay: Administration of SCH 39166 capsules to a patient with autism; format: in vivo, human; details: capsules of Example 1 containing 25.0 mg SCH 39166, once a day, six months

In the case of CN1CCc2cc(Cl)c(O)cc2[C@H]2c3ccccc3CC[C@@H]21 [SCH 39166, (−)-trans-6,7,7a, 8,9,13b-hexahydro-3-chloro-2-hydroxy-N-methyl-5-H-benzo[d]naphtho{2,1-b}azepine HCl], the “observable symptoms of the disorder” value [1] is reported as “reducing or eliminating the observable symptoms of the disorder” and the “observable symptoms of the disorder” value [2] is reported as “reducing or eliminating the observable symptoms of the disorder”.
